Results published in patent publication US10995090B2, “Substituted dihydrobenzofuran glycosidase inhibitors” (Asceneuron SA, priority 2016, dated 2021).
pIC50: −log10 of the molar value.

Each compound was assayed against His-Tagged hOGA (Homo sapiens (Human), UniProt O60502) (assay: Human O-GlcNAcase enzyme inhibition assay). Settings: FL-GlcNAc substrate, 60 min at room temperature, pH 6.5; read-out: OGA IC50.
Chain of His-Tagged hOGA (O60502 whole entry): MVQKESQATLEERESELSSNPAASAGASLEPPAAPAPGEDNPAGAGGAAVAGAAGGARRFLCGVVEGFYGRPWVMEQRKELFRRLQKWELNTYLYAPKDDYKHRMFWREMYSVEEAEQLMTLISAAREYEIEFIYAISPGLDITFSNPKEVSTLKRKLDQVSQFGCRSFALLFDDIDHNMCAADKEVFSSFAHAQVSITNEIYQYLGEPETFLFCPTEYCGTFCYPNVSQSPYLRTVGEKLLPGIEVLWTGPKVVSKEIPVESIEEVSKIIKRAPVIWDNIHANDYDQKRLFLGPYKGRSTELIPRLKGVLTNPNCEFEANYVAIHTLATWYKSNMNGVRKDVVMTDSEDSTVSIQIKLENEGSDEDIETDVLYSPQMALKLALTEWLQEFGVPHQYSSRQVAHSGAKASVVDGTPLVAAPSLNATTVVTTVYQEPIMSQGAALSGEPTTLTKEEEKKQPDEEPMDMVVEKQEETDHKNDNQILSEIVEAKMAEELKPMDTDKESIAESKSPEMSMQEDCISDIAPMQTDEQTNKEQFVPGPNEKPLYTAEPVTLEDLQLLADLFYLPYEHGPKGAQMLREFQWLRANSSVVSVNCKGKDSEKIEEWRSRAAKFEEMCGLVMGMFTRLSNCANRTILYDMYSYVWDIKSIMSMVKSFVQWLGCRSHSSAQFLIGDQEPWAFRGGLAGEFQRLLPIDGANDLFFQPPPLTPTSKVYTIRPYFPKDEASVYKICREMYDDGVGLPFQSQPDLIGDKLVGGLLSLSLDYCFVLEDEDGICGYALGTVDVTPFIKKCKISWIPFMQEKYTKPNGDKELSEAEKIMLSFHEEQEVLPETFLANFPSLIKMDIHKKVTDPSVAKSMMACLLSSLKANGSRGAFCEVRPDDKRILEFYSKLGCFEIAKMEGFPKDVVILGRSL
Format: biochemical
Procedure: Example B01: Human O-GlcNAcase Enzyme Inhibition Assay
5 μl of the appropriate concentration of a solution of inhibitor in Mcllvaine's Buffer (pH 6.5) in 2% DMSO (for a dose response curve calculation) is added into each well of a 384-well plate (Greiner, 781900). Then, 20 nM of His-Tagged hOGA and 10 μM of FL-GlcNAc (Fluorescein mono-beta-D-(2-deoxy-2-N-acetyl) glucopyranoside; Marker Gene Technologies Inc, M1485) were added to the 384-well plate for a final volume of 20 μl. After incubation for 60 min at room temperature, the reaction was terminated by the addition of 10 μL of stop buffer (200 mM glycine, pH 10.75).
`CC(=O)Nc1nnc(N2CCN(C(C)c3ccc4c(c3)OC(C)C4)CC2)s1` (racemic) [Example 1, N-(5-(4-(1-(2-methyl-2,3-dihydrobenzofuran-6-yl)ethyl)piperazin-1-yl)-1,3,4-thiadiazol-2-yl)acetamide] showed a pIC50 of over 7.30. In the case of `CC1Cc2ccc(C(C)N3CCN(c4ncc5c(n4)CCNC5=O)CC3)cc2O1` (racemic) [Example 2, 2-(4-(1-(2-methyl-2,3-dihydrobenzofuran-6-yl)ethyl)piperazin-1-yl)-7,8-dihydropyrido[4,3-d]pyrimidin-5(6H)-one], the pIC50 was over 7.30. In the case of `CC1Cc2ccc(C(C)N3CCN(c4ncc(S(C)(=N)=O)cn4)CC3)cc2O1` (racemic) [Example 3, Imino(methyl)(2-(4-(1-(2-methyl-2,3-dihydrobenzofuran-6-yl)ethyl)piperazin-1-yl)pyrimidin-5-yl)-λ^6-sulfanone], the pIC50 was over 7.30. For `CC(=O)Nc1nnc(N2CCN(C(C)c3ccc4c(c3)OC(C)(C)C4)CC2)s1` (racemic) [Example 4, N-(5-(4-(1-(2,2-dimethyl-2,3-dihydrobenzofuran-6-yl)ethyl)piperazin-1-yl)-1,3,4-thiadiazol-2-yl)acetamide], the pIC50 was 5.00 to 6.00. Compound `CC(c1ccc2c(c1)OC(C)(C)C2)N1CCN(c2ncc(S(C)(=N)=O)cn2)CC1` (racemic) [Example 5, (2-(4-(1-(2,2-dimethyl-2,3-dihydrobenzofuran-6-yl)ethyl)piperazin-1-yl)pyrimidin-5-yl)(imino)(methyl)-λ^6-sulfanone] has a pIC50 of 5.00 to 6.00. `CC(c1ccc2c(c1)OC(C)(C)C2)N1CCN(c2ncc3c(n2)CCNC3=O)CC1` (racemic) [Example 6, 2-(4-(1-(2,2-dimethyl-2,3-dihydrobenzofuran-6-yl)ethyl)piperazin-1-yl)-7,8-dihydropyrido[4,3-d]pyrimidin-5(6H)-one] was tested, and the pIC50 was 5.00 to 6.00. Compound `CC1Cc2ccc(C(C)N3CCN(c4ccc(S(C)(=O)=O)cc4)CC3)cc2O1` (racemic) [Example 7, 1-(1-(2-methyl-2,3-dihydrobenzofuran-6-yl)ethyl)-4-(4-(methylsulfonyl)phenyl)piperazine] has a pIC50 of 6.70 to 7.30. Compound `CC(=O)Nc1nnc(N2CCN(C(C)c3cnc4c(c3)OC(C)C4)CC2)s1` (racemic) [Example 8, N-(5-(4-(1-(2-methyl-2,3-dihydrofuro[3,2-b]pyridin-6-yl)ethyl)piperazin-1-yl)-1,3,4-thiadiazol-2-yl)acetamide] has a pIC50 of 6.00 to 6.70. With `CC(=O)Nc1nnc(N2CCN(C(C)c3ccc4c(c3)O[C@H](C)C4)CC2)s1` (single isomer, unassigned) [Example 11] the pIC50 was 6.00 to 6.70. With `CC(=O)Nc1nnc(N2CCN(C(C)c3ccc4c(c3)O[C@H](C)C4)CC2)s1` (single isomer, unassigned) [Example 12] the pIC50 was over 7.30. `CC(c1ccc2c(c1)O[C@H](C)C2)N1CCN(c2ncc3c(n2)CCNC3=O)CC1` (single isomer, unassigned) [Example 13, 2-(4-((S)-1-((R)-2-methyl-2,3-dihydrobenzofuran-6-yl)ethyl)piperazin-1-yl)-7,8-dihydropyrido[4,3-d]pyrimidin-5(6H)-one or 2-(4-((R)-1-((R)-2-methyl-2,3-dihydrobenzofuran-6-yl)ethyl)piperazin-1-yl)-7,8-dihydropyrido[4,3-d]pyrimidin-5(6H)-one] was tested, and the pIC50 was over 7.30. Compound `CC(=O)Nc1nnc(N2CCN(C(C)c3ccc4c(c3)O[C@@H](C)C4)CC2)s1` (single isomer, unassigned) [Example 16] has a pIC50 of 6.00 to 6.70. Work on `CC(=O)Nc1nnc(N2CCN(C(C)c3ccc4c(c3)O[C@@H](C)C4)CC2)s1` (single isomer, unassigned) [Example 17] yielded a pIC50 of 6.70 to 7.30. For `CC(c1ccc2c(c1)O[C@@H](C)C2)N1CCN(c2ncc3c(n2)CCNC3=O)CC1` (single isomer, unassigned) [Example 18, 2-(4-((S)-1-((S)-2-methyl-2,3-dihydrobenzofuran-6-yl)ethyl)piperazin-1-yl)-7,8-dihydropyrido[4,3-d]pyrimidin-5(6H)-one or 2-(4-((R)-1-((S)-2-methyl-2,3-dihydrobenzofuran-6-yl)ethyl)piperazin-1-yl)-7,8-dihydropyrido[4,3-d]pyrimidin-5(6H)-one], the pIC50 was 6.70 to 7.30. In the case of `CC(=O)Nc1nnc(N2CCN(C(C)c3ccc4c(c3)O[C@H](C)C4)CC2)s1` (stereo partly drawn) [Example 9, N-(5-(4-(1-((R)-2-methyl-2,3-dihydrobenzofuran-6-yl)ethyl)piperazin-1-yl)-1,3,4-thiadiazol-2-yl)acetamide], the pIC50 was over 7.30. `CC(c1ccc2c(c1)O[C@H](C)C2)N1CCN(c2ncc3c(n2)CCNC3=O)CC1` (stereo partly drawn) [Example 10, 2-(4-(1-((R)-2-methyl-2,3-dihydrobenzofuran-6-yl)ethyl)piperazin-1-yl)-7,8-dihydropyrido[4,3-d]pyrimidin-5(6H)-one] was tested, and the pIC50 was over 7.30. For `CC(=O)Nc1nnc(N2CCN(C(C)c3ccc4c(c3)O[C@@H](C)C4)CC2)s1` (stereo partly drawn) [Example 14, N-(5-(4-(1-((S)-2-methyl-2,3-dihydrobenzofuran-6-yl)ethyl)piperazin-1-yl)-1,3,4-thiadiazol-2-yl)acetamide], the pIC50 was 6.00 to 6.70. With `CC(c1ccc2c(c1)O[C@@H](C)C2)N1CCN(c2ncc3c(n2)CCNC3=O)CC1` (stereo partly drawn) [Example 15, 2-(4-(1-((S)-2-methyl-2,3-dihydrobenzofuran-6-yl)ethyl)piperazin-1-yl)-7,8-dihydropyrido[4,3-d]pyrimidin-5(6H)-one] the pIC50 was 6.00 to 6.70. `CC(c1ccc2c(c1)O[C@H](C)C2)N1CCN(c2ncc(S(C)(=O)=O)cn2)CC1` (stereo partly drawn) [Example 19, 2-(4-(1-((R)-2-methyl-2,3-dihydrobenzofuran-6-yl)ethyl)piperazin-1-yl)-5-(methylsulfonyl)pyrimidine] showed a pIC50 of over 7.30. With `CC(c1ccc2c(c1)O[C@H](C)C2)N1CCN(c2ncc(S(C)(=N)=O)cn2)CC1` (stereo partly drawn) [Example 20, imino(methyl)(2-(4-(1-((R)-2-methyl-2,3-dihydrobenzofuran-6-yl)ethyl)piperazin-1-yl)pyrimidin-5-yl)-λ^6-sulfanone] the pIC50 was over 7.30. For `CC(c1ccc2c(c1)O[C@H](C)C2)N1CCN(c2n[nH]c(=O)s2)CC1` (stereo partly drawn) [Example 21, 5-(4-(1-((R)-2-methyl-2,3-dihydrobenzofuran-6-yl)ethyl)piperazin-1-yl)-1,3,4-thiadiazol-2(3H)-one], the pIC50 was 6.70 to 7.30.
